# Experimental data taken from ChEMBL document CHEMBL3271977, “Stereospecific interaction of the quaternized opiate, N-methyllevorphanol, with opiate receptors” (J Med Chem, 1976).
# Active and inactive are the calls of the source. The calls are words filed in the database; no cut-off is given here.
# Experiments:
# Ileum [1] = experiment: Inhibition of electrically-induced contraction of guinea pig ileum longitudinal muscle with myentric plexus; type: functional, tissue-based; conditions: Cavia porcellus
# Ileum [2] = experiment: Inhibition of electrically-induced contraction of guinea pig ileum longitudinal muscle with myentric plexus in presence of naloxone; type: functional, tissue-based; conditions: Cavia porcellus
# Ileum [3] = experiment: Reduction in response of guinea pig ileum longitudinal muscle to exogenous acetylcholine; type: functional, tissue-based; conditions: Cavia porcellus
# Ileum [4] = experiment: Stimulation of guinea pig ileum longitudinal muscle contraction relative to levorphanol; type: functional, Cavia porcellus
# Ileum [5] = experiment: Inhibition of electrically-induced contraction of guinea pig ileum longitudinal muscle relative to levorphanol; type: functional, Cavia porcellus
# [6] = Displacement of [3H]etorphine from opioid receptor in guinea pig brain homogenate by scintillation counting analysis; type: tissue-based, Cavia porcellus
# Ileum [7] = experiment: Inhibition of electrically-induced contraction of guinea pig ileum longitudinal muscle with myentric plexus up to 10^-5 M; type: functional, tissue-based; conditions: Cavia porcellus
# Ileum [8] = experiment: Inhibition of electrically-induced contraction of guinea pig ileum longitudinal muscle with myentric plexus at 4 X 10^-5 M; type: functional, tissue-based; conditions: Cavia porcellus
SMILES,IC50 (Ileum [1]),inhibition (Ileum [1]),inhibition (Ileum [2]),inhibition (Ileum [3]),fold change (FC) (Ileum [4]),fold change (FC) (Ileum [5]),IC50 [6],inhibition (Ileum [7]),inhibition (Ileum [8])
C[N+]1(C)CC[C@]23CCCC[C@H]2[C@H]1Cc1ccc(O)cc13.[I-],610 nM,Dose-dependent effect,inactive,inactive,0.068,0.032,520 nM,–,–
C[N+]1(C)CC[C@@]23CCCC[C@@H]2[C@@H]1Cc1ccc(O)cc13,–,–,–,–,–,–,–,inactive,Active
CN1CC[C@]23CCCC[C@H]2[C@H]1Cc1ccc(O)cc13 [LEVORPHANOL],–,–,–,–,–,–,8 nM,–,–
